Measured values taken from patent US8993626B2, “Methods of treatment using sterculic acid” (The United States of America, as represented by the …, priority 2010, dated 2015).

Columns and labels:
[1] = tested on: ARPE-19 cells; test: qRT-PCR of inflammatory cytokines and ER stress markers, 7KCh-mediated inflammation; format: cell-based; conditions: for effect on 7KCh-mediated mRNA induction (inflammatory response): 1 μM fatty acid + 8 μM 7KCh, FIG. 13; for effect on 7KCh-mediated mRNA induction (inflammatory response) / VEGF mRNA expression / IL-6 mRNA expression / GRP78 mRNA expression / CHOP mRNA expression: 24 hr; for VEGF mRNA expression: FIG. 13A; for IL-6 mRNA expression: FIG. 13B; for GRP78 mRNA expression: FIG. 13C; for CHOP mRNA expression: FIG. 13D
Procedure: FIGS. 13A-13D depict mRNA expressions of (A) VEGF, (B) IL-6, (C) GRP78, and (D) CHOP in response to 8 μM 7KCh with or without 1 μM long-chain fatty acids. Error bars indicate the standard deviations. *p<0.05 comparing to 7KCh, n=3. Two-tailed Student's t-test.
(§1) FIGS. 14A-14D depict mRNA expressions of (A) VEGF, (B) IL-1b, (C) IL-6, and (D) IL-8 in response to 8 μM 7KCh, 1 μM sterculic acid, 1 μM stearic acid, or the combinations of 7KCh with either sterculic acid or stearic acid. Error bars indicate the standard deviations. *p<0.05 comparing to 7KCh, n=4. Two-tailed Student's t-test.
as §1, with “15A-15D” for “14A-14D”, “TNF-α,” for “VEGF,”, “TGF-β1,” for “IL-1b,”, “GRP78,” for “IL-6,”, “CHOP” for “IL-8”, “n=3-4.” for “n=4.”
(§2) ARPE-19 cells were seeded in 24-well plates with 1×10^5 cells per well and allowed to recover for 16-24 hr. Once confluency reached approximately 90%, the effect of the fatty acids against 7KCh-mediated cell death was examined 24 hr after incubation in serum-free medium with 12 μM 7KCh. Fatty acids were tested at 0.1, 0.5, 1, 5 and 10 μM concentrations. The effects of the fatty acids against 7KCh-mediated inflammation and ER stress were examined by incubating cells in 1 μM fatty acids with either 8 μM 7KCh (24 hr for quantitative real-time PCR (qRT-PCR), 24 and 48 hr for immunoblot), or 6 μM 7KCh for 48 hr (for ELISA). Three individual experiments were performed for each treatment with quadruplicate measurements performed for each experiment in 24-well plates.
(§3) The RNA was extracted using RNeasy Mini Kit (Qiagen, Valencia, Calif.). The reverse transcription was performed with reagents and kits from Invitrogen. Quantification of mRNA expression was performed using the Taqman gene expression assays and the following primers (VEGFa, Hs00173626_m1; IL-1β, Hs01555413_m1; IL-6, Hs00174131_m1; IL-8, Hs00174103_m1; IκBα, Hs00153283_m1; GRP78, Hs99999174_m1; CHOP, Hs01090850_m1; NOX2, Hs00166163_m1; NOX4, Hs01558199_m1; SCD, Hs00748952 s1; TNF-α, Hs00174128_m1; TGF-β1, Hs00998133_m1; GAPD, 4352934e). GAPD expression was used as an endogenous standard. All qRT-PCR experiments were measured in triplicates in an ABI 7500 Real-Time PCR Instrument (Applied Biosystems, Foster City, Calif.). The results of each treatment were normalized and presented in percentage relative to the vehicle-only control.

[2] = tested on: ARPE-19 cells; test: Fatty acids against 7KCh-mediated cell death (CCK8); format: cell-based; conditions: for CONC. (μM): lowest concentration required to maintain full cell viability against 7KCh: 12 μM 7KCh for 24 hr, tested 0.1, 0.5, 1, 5 and 10 μM
Procedure: FIGS. 12A-12C depict ARPE-19 cell viability in response to 12 μM 7KCh with or without 0.1-5 μM (A) sterculic acid and (B) stearic acid after 24 hr treatments. Error bars indicate the standard deviations. n=3-5. Two-tailed Student's t-test. (C) Representative images of changes in cell morphology in response to 12 μM 7KCh with or without 1 μM sterculic acid and stearic acid after 24 hr treatments.
as §2
The cell viability was determined by the dehydrogenase activity of the ARPE-19 cells using Cell Counting Kit-8 (CCK8, Dojindo, Gaithersburg, Md.) according to manufacturer's protocol.
The lowest effective concentrations of fatty acids that offset the 7KCh-mediated cell death were determined. […] Table 3 lists the lowest concentrations of these fatty acids required to maintain full cell viability against 12 μM 7KCh treatment. All unsaturated fatty acids protected against 7KCh-induced cell death. […] DHA, α-linolenic, and linoleic acid prevented 7KCh-mediated cell death at 5 μM but the rest of unsaturated fatty acids and dihydrosterculic acid required 10 μM to be protective.

[3] = tested on: ARPE19 cells; test: Cell Counting Kit-8 viability assay, 15 μM 7KCh-induced cytotoxicity; conditions: 1 μM fatty acid + 15 μM 7KCh, 24 hr, CCK-8
Procedure: 4×10^4 cells were seeded onto wells of a 96 well plate. […] Cell viability was determined as celluar dehydrogenase activity and expressed as the percentage of compound treated cells relative to that of untreated controls. error bar: standard deviation, n=4.
The kit allows sensitive colorimetric assays for the determination of the number of viable cells in cell proliferation and cytotoxicity assays. The amount of the formazan dye generated by the activity of dehydrogenases in cells is directly proportional to the number of living cells.
1) Cells were cultivated in a 96 well cell plate (Costar#3599, Corning Incorp, Corning, N.Y.).
2) The cell suspension (40,000 cells/100 μL) were added to 100 μL culture media per well and stood for 15 min at room temperature and cultured at 37° C. in a humidified 5% CO2 atmosphere.
3) Approximately 19 hr after seeding, when the cells were fully confluent, the cells were treated with either DMSO or 1 μM fatty acid in 200 μL of serum free media and subsequently added with 15 μM 7KCh in HPBCD. Then, the plate was swirled for mixing. The cells were also treated with DMSO and HPBCD, which served as vehicle control. The final DMSO and HPBCD concentrations in the media were in the range of 0.1% and 0.0675%, respectively.
Cell viability was expressed as the percentage of compound treated cells relative to that of untreated controls. Prior to measure cell viability, the cells were imaged live by Nikon TE 2000-U inverted fluorescent microscope.

[4] = tested on: ARPE19 cells; test: CellTiter-Glo luminescent cell viability assay, 15 μM 7KCh-induced cytotoxicity; format: cell-based, human; conditions: 1 μM fatty acid + 15 μM 7KCh, 24 hr, CellTiter-Glo
Procedure: Error bar: standard deviation, n=4.
CellTiter-Glo® Luminescent Cell Viability Assay is a homogeneous method of determining the number of viable cells in culture based on quantitation of the ATP (luminescent signal) present, an indicator of metabolically active cells.
The contents in a plate were mixed for 2 min on an orbital shaker to induce cell lysis.
5) The plate was allowed to incubate at room temperature for 10 min to stabilize luminescent signal.

[5] = tested on: ARPE19 cells; test: Phase-contrast images of cells after co-treatment with 15 μM 7KCh; format: cell-based, human; conditions: 1 μM fatty acid + 15 μM 7KCh, 24 hr
From the text: FIG. 8 depicts phase-contrast images of ARPE19 cells at 24 hr after sterculic acid co-treatment with 7KCh.

[6] = tested on: ARPE19 cells; test: 7-ketocholesterol-mediated cytotoxicity, 24-well CCK-8 viability and images; conditions: 24 hr
[7] = tested on: ARPE-19 cells; test: ELISA of secreted VEGF, IL-6, IL-8 in conditioned medium; format: cell-based; conditions: 1 μM + 6 μM 7KCh, 48 hr
Procedure: (§4) FIGS. 16A-16E depict the secreted protein levels of (A) VEGF, (B) IL-6, and (C) IL-8 were measure by ELISA 48 hr after treatment with 6 μM 7KCh, 1 μM sterculic acid, 1 μM stearic acid, or the combinations of 7KCh with either sterculic acid or stearic acid. Error bars indicate the standard deviations. *p<0.05 comparing to 7KCh, n=3. Two-tailed Student's t-test. The expressions of GRP78 and CHOP were shown by immunoblots (D) 24 hr or (E) 48 hr after treatment with 8 μM 7KCh, 1 μM sterculic acid, 1 μM stearic acid, or the combinations of 7KCh with either sterculic acid or stearic acid.
as §2
The levels of secreted VEGF, IL-6, IL-8, and TNF-α in conditioned medium of ARPE-19 cell cultures were measured 48 hr after treatments of 6 μM 7KCh and 1 μM fatty acids using the Quantkine ELISA kits from R&D systems (Minneapolis, Minn.). The protein levels were measured in triplicates. The ELISA results were quantified using an Envision multilable plate reader (PerkinElmer, Covina, Calif.) and presented in percentage relative to the vehicle-only control.

[8] = tested on: ARPE-19 cells; test: qRT-PCR of cytokines in TNF-α treated cells; format: cell-based; conditions: 24 hr
Procedure: FIGS. 17A-17D depict the mRNA expressions of (A) IL-1β, (B) IL-8, (C) IκBα, and (D) GRP78 in response to 2 ng/ml TNF-α, 1 μM sterculic acid, 1 μM stearic acid, or the combinations of TNF-α with either sterculic acid or stearic acid. n=3. Error bars indicate the standard deviations.
Tumor necrosis factor-alpha (TNF-α, Roche Diagnostics, Indianapolis, Ind.) was diluted in PBS to make 10 μg/ml stock solution and stored at −20° C. In order to test the anti-inflammation effect of fatty acids against TNF-α, ARPE-19 cells were treated with 2 ng/ml of TNF-α for 24 hr in serum-free medium with or without 1 μM fatty acids. The mRNA expressions of cytokines were then examined using qRT-PCR. Each treatment was performed three times with quadruplicate measurements in each experiment, in 24-well plates.
as §3

[9] = tested on: ARPE-19 cells; test: Immunoblots of CHOP and GRP78; format: cell-based; conditions: 1 μM + 8 μM 7KCh, 24 hr
Procedure: as §4, §2
Lysis of ARPE-19 cells was performed using MPER buffer solution (Thermo Fisher Scientific) containing Complete Protease Inhibitor Cocktail (Roche Diagnostics). A total of 10 μg protein samples of the cell lysate were separated by SDS-PAGE on 10% Bis-Tris gels (Invitrogen). The gels were blotted on to nitrocellulose membranes (Invitrogen). The proteins were probed with primary antibodies for CHOP (1:1000 dilution), GRP78 (1:1000), or GAPDH (1:2000) at 4° C. overnight. The membranes were then further incubated with anti-rabbit IgG, HRP-linked antibodies (1:2000 dilution) at room temperature for 1 hr. […]

[10] = 8 μM 7KCh alone or with 1 μM fatty acid

Compound: CCCCC/C=C\C/C=C\C/C=C\C/C=C\CCCC(=O)O [arachidonic acid, Arachidonic acid]
- effect on 7KCh-mediated mRNA induction (inflammatory response) [1]: either ineffective or enhanced
- CONC. (μM): lowest concentration required to maintain full cell viability against 7KCh [2]: 10 µM

Compound: CCCCCCCC[C@@H]1C[C@@H]1CCCCCCCC(=O)O [dihydrosterculic acid, Dihydrosterculic acid]
- increase of cell viability compared to 7KCh alone treatment [3]: 20%
- increase of cell viability compared to 7KCh alone treatment [4]: 20%
- VEGF mRNA expression [1, 10]: essentially ineffective
- IL-6 mRNA expression [1, 10]: somewhat effective
- GRP78 mRNA expression [1, 10]: somewhat effective
- CHOP mRNA expression [1, 10]: somewhat effective
- cell morphological changes compared to 7KCh alone [5]: more cells compared to 7KCh alone
- CONC. (μM): lowest concentration required to maintain full cell viability against 7KCh [2]: 10 µM
- protection of cell confluency and morphology (images) ([6]; 0.5 μM co-treatment with 12 μM 7KCh): no effect
- protection of cell confluency and morphology (images) ([6]; 1 μM co-treatment with 12 μM 7KCh): slight effect
- protection of cell confluency and morphology (images) ([6]; 1 μM co-treatment with 12 μM 7KCh, listed as Dihydrosterculic acid): do not have such protection effect

Compound: CC/C=C\C/C=C\C/C=C\C/C=C\C/C=C\C/C=C\CCC(=O)O [docosahexaenoic acid]
- CONC. (μM): lowest concentration required to maintain full cell viability against 7KCh [2]: 5 µM

Compound: CCCCC/C=C\C/C=C\CCCCCCCC(=O)O [linoleic acid]
- effect on 7KCh-mediated mRNA induction (inflammatory response) [1]: either ineffective or enhanced
- CONC. (μM): lowest concentration required to maintain full cell viability against 7KCh [2]: 5 µM

Compound: CCCCCCCCCCCCCCCCCC(=O)O [stearic acid]
- antagonistic effect to 7KCh-mediated mRNA induction ([1]; 1 μM + 8 μM 7KCh, FIGS. 14, 15): did not show any antagonistic effect
- effect on 7KCh-mediated mRNA induction (inflammatory response) [1]: either ineffective or enhanced
- effect of fatty acid alone on the mRNA expression of the cytokines ([1]; 1 μM fatty acid alone, no 7KCh, FIGS. 14, 15): no effect
- induction of VEGF mRNA ([1]; 8 μM 7KCh alone or with 1 μM fatty acid, FIG. 14A): 8.8 fold
- induction of IL-6 mRNA ([1]; 8 μM 7KCh alone or with 1 μM fatty acid, FIG. 14C): 29 fold
- effect on secreted VEGF, IL-6, IL-8 protein levels [7]: no measurable effect
- antagonist effect to the cytokine inductions by TNF-α ([8]; 1 μM fatty acid + 2 ng/ml TNF-α): seemed to enhance
- morphological effects on the cells (images) ([2]; 1 μM + 12 μM 7KCh, 24 hr, FIG. 12C): no effect
- protective effect against 7KCh-mediated cell death ([2]; 12 μM 7KCh, 24 hr, 0.1-10 μM fatty acid): did not demonstrate any protective effect
- effect on 7KCh-induced CHOP and GRP78 protein expression [9]: no effect

Compound: CC/C=C\C/C=C\C/C=C\CCCCCCCC(=O)O [α-linolenic acid]
- VEGF mRNA expression [1, 10]: essentially ineffective
- IL-6 mRNA expression [1, 10]: somewhat effective
- GRP78 mRNA expression [1, 10]: somewhat effective
- CHOP mRNA expression [1, 10]: somewhat effective
- CONC. (μM): lowest concentration required to maintain full cell viability against 7KCh [2]: 5 µM

Compound: TNF-α
- induction of GRP78 mRNA expression ([8]; 2 ng/ml TNF-α alone or with 1 μM fatty acid, FIG. 17D): 2.5 fold
- induction of IL-1β mRNA expression ([8]; 2 ng/ml TNF-α): 9 fold
- induction of IL-8 mRNA expression ([8]; 2 ng/ml TNF-α): 8 fold
- induction of IκBα mRNA expression ([8]; 2 ng/ml TNF-α): 3 fold
